Assay results published in US20070128217A1 (priority 2003, published 2007).

What was measured:
[1] = test system: antibodies in sera from SARS patients (sera 1a, 1b, 2, 6, 37, 62, London, SARS-yellow, SARS-green); type: binding, human; design: Binding of serum 6 to linear peptides of protein X1 of SARS-CoV Urbani / Binding of serum 37 to linear peptides of protein X1 of SARS-CoV Urbani / Binding of serum 6 to looped/cyclic peptide (PEPSCAN-ELISA) / Binding of serum 37 to looped/cyclic peptide (PEPSCAN-ELISA) / Binding of serum 37 to looped/cyclic peptides of protein X1 of SARS-CoV Urbani / Binding of serum 6 to linear peptides of protein X2 / Binding of serum 37 to linear peptides of protein X2 / Binding of serum 37 to looped/cyclic peptides of protein X2 of SARS-CoV Urbani / Binding of serum 6 to linear peptides of protein M of SARS-CoV Urbani / Binding of serum 37 to linear peptides of protein M of SARS-CoV Urbani / Binding of serum 6 to looped/cyclic peptides of protein M of SARS-CoV Urbani / Binding of serum 37 to looped/cyclic peptides of protein M of SARS-CoV Urbani / Binding of serum 6 to linear peptides of protein X3 of SARS-CoV Urbani / Binding of serum 37 to linear peptides of protein X3 of SARS-CoV Urbani / Binding of serum 37 to looped/cyclic peptides of protein X3 of SARS-CoV Urbani / Binding of serum 6 to linear peptides of protein X4 of SARS-CoV Urbani / Binding of serum 37 to linear peptides of protein X4 of SARS-CoV Urbani / Binding of serum 37 to looped/cyclic peptides of protein X4 of SARS-CoV Urbani / Binding of serum 6 to linear peptides of protein X5 of SARS-CoV Urbani / Binding of serum 37 to linear peptides of protein X5 of SARS-CoV Urbani / Binding of serum 37 to looped/cyclic peptides of protein X5 of SARS-CoV Urbani / Binding of serum 6 to linear peptides of protein N of SARS-CoV Urbani / Binding of serum 37 to linear peptides of protein N of SARS-CoV Urbani / Binding of serum 6 to linear peptide (PEPSCAN-ELISA) / Binding of serum 1a to looped/cyclic peptides of protein N of SARS-CoV Urbani / Binding of serum 1b to looped/cyclic peptides of protein N of SARS-CoV Urbani / Binding of serum 2 to looped/cyclic peptides of protein N of SARS-CoV Urbani / Binding of serum 6 to looped/cyclic peptides of protein N of SARS-CoV Urbani / Binding of serum 37 to looped/cyclic peptides of protein N of SARS-CoV Urbani / Binding of serum 62 to looped/cyclic peptides of protein N of SARS-CoV Urbani / Binding of serum London to looped/cyclic peptides of protein N of SARS-CoV Urbani / Binding of serum SARS-green to looped/cyclic peptides of protein N of SARS-CoV Urbani: unit not given here
[2] = test system: control sera (pooled serum of ten healthy LUMC hospital workers; commercial negative donor pooled serum from the Dutch bloodbank); type: binding, human; design: Binding of Control serum LUMC to linear peptides / Binding of Control serum Blood-bank to linear peptides / Binding of Control serum LUMC to looped peptides / Binding of Control Serum Blood-Bank to Looped peptides / Binding of Control serum LUMC to linear peptides of the protein M of SARS-CoV Urbani / Binding of Control serum Blood-bank to linear peptides of the protein M of SARS-CoV Urbani / Binding of Control serum LUMC to looped peptides of the protein M of SARS-CoV Urbani / Binding of Control Serum Blood-Bank to Looped peptides of the protein M of SARS-CoV Urbani: unit not given here
[3] = test system: rabbit serum obtained by immunizing a rabbit with the SARS-CoV strain Frankfurt 1; type: binding; design: Binding of a rabbit serum to linear peptides / Binding of a rabbit serum to looped peptides / Rabbit serum linear peptides / Rabbit serum looped peptides / Binding of a rabbit serum to linear peptides of protein N of SARS-CoV Urbani (Rabbit serum linear peptides) / Binding of a rabbit serum to looped/cyclic peptides of protein N of SARS-CoV Urbani (Rabbit serum looped peptides): unit not given here
[4] = test system: recombinant human anti-SARS-CoV antibody 03-018; type: binding; design: Binding of antibody 03-018 to linear peptides of the N protein of SARS-CoV Urbani / Binding of antibody 03-018 to looped/cyclic peptides of the N protein of SARS-CoV Urbani: unit not given here

Sequence | Binding of serum 1a to linear peptides of protein N of SARS-CoV Urbani [1] | Binding of serum 1a to looped/cyclic peptides of protein N of SARS-CoV Urbani [1] | Binding of serum 1b to linear peptides of protein N of SARS-CoV Urbani [1] | Binding of serum 1b to looped/cyclic peptides of protein N of SARS-CoV Urbani [1] | Binding of serum 2 to linear peptides of protein N of SARS-CoV Urbani [1] | Binding of serum 2 to looped/cyclic peptides of protein N of SARS-CoV Urbani [1] | Binding of serum 6 to linear peptides of protein N of SARS-CoV Urbani [1] | Binding of serum 6 to looped/cyclic peptides of protein N of SARS-CoV Urbani [1] | Binding of serum 37 to linear peptides of protein N of SARS-CoV Urbani [1] | Binding of serum 37 to looped/cyclic peptides of protein N of SARS-CoV Urbani [1] | Binding of serum 62 to linear peptides of protein N of SARS-CoV Urbani [1] | Binding of serum 62 to looped/cyclic peptides of protein N of SARS-CoV Urbani [1] | Binding of serum London to linear peptides of protein N of SARS-CoV Urbani [1] | Binding of serum London to looped/cyclic peptides of protein N of SARS-CoV Urbani [1] | Binding of serum SARS-green to looped/cyclic peptides of protein N of SARS-CoV Urbani [1] | Binding of serum SARS-yellow to looped/cyclic peptides of protein N of SARS-CoV Urbani [1] | Binding of a rabbit serum to linear peptides of protein N of SARS-CoV Urbani (Rabbit serum linear peptides) [3] | Binding of a rabbit serum to looped/cyclic peptides of protein N of SARS-CoV Urbani (Rabbit serum looped peptides) [3] | Binding of antibody 03-018 to linear peptides of the N protein of SARS-CoV Urbani [4] | Binding of antibody 03-018 to looped/cyclic peptides of the N protein of SARS-CoV Urbani [4] | other results
QNGGRNGARPKQRRP | 0.2 | 0.3 | 0.1 | 0.1 | 0.3 | 0.3 | 0.2 | 0.2 | 0.7 | 0.6 | 0.8 | 0.4 | 0.5 | 0.3 | 0.6 | 0.5 | 0.2 | 0.4 | 0.2 | 0.3 | Binding of serum SARS-green to linear peptides of protein N of SARS-CoV Urbani [1]: 0.5; Binding of serum SARS-yellow to linear peptides of protein N of SARS-CoV Urbani [1]: 0.7; Binding of Control Serum Blood-Bank to Looped peptides [2]: 0.6; Binding of Control serum Blood-bank to linear peptides [2]: 0.6; Binding of Control serum LUMC to linear peptides [2]: 0.8; Binding of Control serum LUMC to looped peptides [2]: 0.8
QPTVTLLPAADMDDF | 0.3 | 0.3 | 0.2 | 0.2 | 0.2 | 0.2 | 0.2 | 0.1 | 1.1 | 0.5 | 0.7 | 0.3 | 0.5 | 0.2 | 0.4 | 0.4 | 0.1 | 0.0 | 0.1 | 0.2 | Binding of serum SARS-green to linear peptides of protein N of SARS-CoV Urbani [1]: 1.9; Binding of serum SARS-yellow to linear peptides of protein N of SARS-CoV Urbani [1]: 0.7; Control Serum Blood-Bank Looped peptides [2]: 0.5; Control serum Blood-bank linear peptides [2]: 0.7; Control serum LUMC linear peptides [2]: 0.5; Control serum LUMC looped peptides [2]: 0.5
QQGQTVTKKSAAEAS | – | 0.5 | – | 0.4 | – | 0.5 | – | 0.3 | – | 0.6 | – | 0.5 | – | 0.4 | 0.8 | 0.5 | 0.2 | 0.0 | 0.1 | 0.2 | Recognition of the peptide by sera of SARS-CoV infected individuals, and form (linear, looped/cyclic) in which it is recognized [1]: recognized in linear form; Binding of Control Serum Blood-Bank to Looped peptides [2]: 0.5; Binding of Control serum Blood-bank to linear peptides [2]: 0.8; Binding of Control serum LUMC to linear peptides [2]: 0.7; Binding of Control serum LUMC to looped peptides [2]: 0.5
QRRPQGLPNNTASWF | 0.2 | 0.5 | 0.1 | 0.3 | 0.1 | 0.5 | 0.2 | 0.4 | 0.6 | 0.7 | 0.7 | 0.6 | 0.4 | 0.5 | 0.7 | 0.6 | 0.1 | 0.6 | 0.1 | 0.2 | Binding of serum SARS-green to linear peptides of protein N of SARS-CoV Urbani [1]: 0.2; Binding of serum SARS-yellow to linear peptides of protein N of SARS-CoV Urbani [1]: 0.7; Binding of Control Serum Blood-Bank to Looped peptides [2]: 0.8; Binding of Control serum Blood-bank to linear peptides [2]: 0.7; Binding of Control serum LUMC to linear peptides [2]: 0.6; Binding of Control serum LUMC to looped peptides [2]: 0.9
